According to patent US8486995B2, “Acaricidal active substance combinations” (priority 2007, dated 2013):
In brackets after ≈: the same amount, converted by molar mass.

Experiments:
Assay type in all cases: in vivo
[1] = test system: citrus spider mite (Panonychus citri); experiment: Panonychus citri test (sprayed citrus plants); conditions: single active substance; for LC50: Panonychus citri, in Citrus x limon, 24 h, after 1 d, read-out: LC 50 in mg/l after 1d; for LC 50 in mg/l after 1d: Citrus limon
Experimental: (§1) Solvent: 7 parts by weight of dimethylformamide
(§2) Emulsifier: 2 parts by weight of alkylaryl polyglycol ether
(§3) To prepare a suitable preparation of active substance, 1 part by weight of active substance is mixed with the stated amounts of solvent and emulsifier, and the concentrate is diluted with water to the desired concentrations.
Citrus plants (Citrus limon) which are infected with a mixed population of the citrus spider mite (Panonychus citri) are sprayed with the active substance preparation at the desired concentration.
(§4) After the desired period of time, the destruction is determined in %. In this context, 100% means that all spider mites have been destroyed; 0% means that no spider mites have been destroyed.

[2] = test system: common spider mite (Tetranychus urticae); experiment: Tetranychus urticae test (OP-resistant; sprayed cucumbers); conditions: single active substance
Experimental: Tetranychus urticae Test (OP-Resistant)
as §1, §2, §3
Cucumbers (Cucumis sativus) which are severely infected with the common spider mite (Tetranychus urticae) are sprayed with the active substance preparation at the desired concentration.
as §4

[3] = test system: fruit tree spider mite (Panonychus ulmi); experiment: Panonychus ulmi test (sprayed plum cuttings); conditions: single active substance
Experimental: as §1, §2, §3
Plum cuttings (Prunus domestica) which are infected with a mixed population of the fruit tree spider mite (Panonychus ulmi) are sprayed with the active substance preparation at the desired concentration.
as §4

Molecule | LC50 [1] [mg/L] | Destruction in % after 6d ([2]; 0.032 ppm) [%] | Destruction in % after 6d ([2]; 0.16 ppm, cucumbers) [%] | Destruction in % after 2d ([3]; 0.8 ppm, plum cuttings) [%] | Destruction in % after 2d ([3]; 4 ppm) [%] | LC 50 in mg/l after 1d [1] [mg/L] | Destruction in % after 2d ([3]; 0.16 ppm) [%]
CCC(C)(C)C(=O)OC1=C(c2ccc(Cl)cc2Cl)C(=O)OC12CCCCC2 [Spirodiclofen (I), Spirodiclofen] | 12.3 (≈ 29.8 µM) | 15 | 25 | 5 | 15 |  | 
COc1ccc(-c2ccccc2)cc1NNC(=O)OC(C)C [Bifenazate (II), bifenazate] |  |  | 15 | 10 |  |  | 
CC(C)(C)c1ccc(CCOc2ncnc3ccccc23)cc1 [Fenazaquin (V), fenazaquin] | 10.2 (≈ 33.3 µM) |  | 0 | 0 |  |  | 
CC(C)(C)c1ccc(CSc2cnn(C(C)(C)C)c(=O)c2Cl)cc1 [Pyridaben (IV), pyridaben] |  |  |  |  |  | 31.41 (≈ 86.1 µM) | 
abamectin [Abamectin (VI)] |  |  |  |  |  | 1.0054 | 0
